Measurements reported in US12077503B2, “Substituted cyclic amides and their use as herbicides” (FMC CORPORATION, priority 2015, dated 2024).

Experiments:
Format in all cases: in vivo
rice (Oryra sativa) = assay: Test B flooded paddy test; settings: Flood, 250 g ai/ha; 0 to 100 scale where 0 is no effect and 100 is complete control; 13 to 15 d
Summary of the method: (§1)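 Greenhouse paddy pots with 2-leaf stage plants received compound by direct addition to floodwater 3 cm deep, kept at that level. Scored visually at 13–15 d versus controls (0 no effect; 100 complete control).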

[1] = tested on: sedge, umbrella (small-flower umbrella sedge, Cyperus difformis); assay: Test B flooded paddy test; settings: Flood, 250 g ai/ha; 0 to 100 scale where 0 is no effect and 100 is complete control; 13 to 15 d
Summary of the method: as §1

[2] = tested on: barnyardgrass (Echinochloa crus-galli); assay: Test B flooded paddy test; settings: Flood, 250 g ai/ha; 0 to 100 scale where 0 is no effect and 100 is complete control; 13 to 15 d
Summary of the method: as §1

[3] = tested on: ducksalad (Heteranthera limosa); assay: Test B flooded paddy test; settings: Flood, 250 g ai/ha; 0 to 100 scale where 0 is no effect and 100 is complete control; 13 to 15 d
Summary of the method: as §1

Kochia (Kochia scoparia) [4] = assay: Test A preemergence; settings: for Plant response rating, Kochia: 125 g ai/ha; for Kochia plant response rating (0 to 100 scale, 0 is no effect, 100 is complete control): 500 g ai/ha, visual injury approx. 10 d
Summary of the method: (§2)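 Greenhouse, ~10 d after spray; visual injury vs untreated controls, 0 = no effect, 100 = complete control. Preemergence: directed soil spray over planted seeds. Postemergence: plants 2–10 cm, 1–2 leaf stage. Loam/sand blend. Compound in non-phytotoxic solvent with surfactant.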

[5] = tested on: giant foxtail (Setaria faberii); assay: Test A preemergence; settings: for Plant response rating, Foxtail, Giant: 125 g ai/ha; for Foxtail, Giant plant response rating (0 to 100 scale, 0 is no effect, 100 is complete control): 500 g ai/ha, visual injury approx. 10 d
Summary of the method: as §2

[6] = tested on: barnyardgrass (Echinochloa crus-galli); assay: Test A preemergence; settings: for Plant response rating, Barnyardgrass: 125 g ai/ha; for Barnyardgrass plant response rating (0 to 100 scale, 0 is no effect, 100 is complete control): 500 g ai/ha, visual injury approx. 10 d
Summary of the method: as §2

[7] = tested on: ragweed (common ragweed, Ambrosia elatior); assay: Test A preemergence; settings: for Plant response rating, Ragweed: 125 g ai/ha; for Ragweed plant response rating (0 to 100 scale, 0 is no effect, 100 is complete control): 500 g ai/ha, visual injury approx. 10 d
Summary of the method: as §2

[8] = tested on: ryegrass, Italian (Italian ryegrass, Lolium multiflorum); assay: Test A preemergence; settings: for Plant response rating, Ryegrass, Italian: 125 g ai/ha; for Ryegrass, Italian plant response rating (0 to 100 scale, 0 is no effect, 100 is complete control): 500 g ai/ha, visual injury approx. 10 d
Summary of the method: as §2

[9] = tested on: pigweed (Amaranthus retroflexus); assay: Test A preemergence; settings: for Plant response rating, Pigweed: 125 g ai/ha; for Pigweed plant response rating (0 to 100 scale, 0 is no effect, 100 is complete control): 500 g ai/ha, visual injury approx. 10 d
corn (Zea mays) = assay: Test A postemergence; settings: for Corn plant response rating: 125 g ai/ha, visual injury rating on 0 to 100 scale (0 no effect, 100 complete control), approx. 10 d; for Plant response rating, Corn: 500 g ai/ha
Summary of the method: as §2

Kochia (Kochia scoparia) [10] = assay: Test A postemergence; settings: for Kochia plant response rating: 125 g ai/ha, visual injury rating on 0 to 100 scale (0 no effect, 100 complete control), approx. 10 d; for Plant response rating, Kochia: 500 g ai/ha
Summary of the method: as §2

[11] = tested on: giant foxtail (Setaria faberii); assay: Test A postemergence; settings: for Foxtail, Giant plant response rating: 125 g ai/ha, visual injury rating on 0 to 100 scale (0 no effect, 100 complete control), approx. 10 d; for Plant response rating, Foxtail, Giant: 500 g ai/ha
Summary of the method: as §2

[12] = tested on: blackgrass (Alopecurus myosuroides); assay: Test A postemergence; settings: for Blackgrass plant response rating: 125 g ai/ha, visual injury rating on 0 to 100 scale (0 no effect, 100 complete control), approx. 10 d; for Plant response rating, Blackgrass: 500 g ai/ha
Summary of the method: as §2

[13] = tested on: barnyardgrass (Echinochloa crus-galli); assay: Test A postemergence; settings: for Barnyardgrass plant response rating: 125 g ai/ha, visual injury rating on 0 to 100 scale (0 no effect, 100 complete control), approx. 10 d; for Plant response rating, Barnyardgrass: 500 g ai/ha
Summary of the method: as §2

[14] = tested on: wheat (Triticum aestivum); assay: Test A postemergence; settings: for Wheat plant response rating: 125 g ai/ha, visual injury rating on 0 to 100 scale (0 no effect, 100 complete control), approx. 10 d; for Plant response rating, Wheat: 500 g ai/ha
Summary of the method: as §2

[15] = tested on: ragweed (common ragweed, Ambrosia elatior); assay: Test A postemergence; settings: for Ragweed plant response rating: 125 g ai/ha, visual injury rating on 0 to 100 scale (0 no effect, 100 complete control), approx. 10 d; for Plant response rating, Ragweed: 500 g ai/ha
Summary of the method: as §2

[16] = tested on: ryegrass, Italian (Italian ryegrass, Lolium multiflorum); assay: Test A postemergence; settings: for Ryegrass, Italian plant response rating: 125 g ai/ha, visual injury rating on 0 to 100 scale (0 no effect, 100 complete control), approx. 10 d; for Plant response rating, Ryegrass, Italian: 500 g ai/ha
Summary of the method: as §2

[17] = tested on: pigweed (Amaranthus retroflexus); assay: Test A postemergence; settings: for Pigweed plant response rating: 125 g ai/ha, visual injury rating on 0 to 100 scale (0 no effect, 100 complete control), approx. 10 d; for Plant response rating, Pigweed: 500 g ai/ha
Summary of the method: as §2

[18] = tested on: Galium (catchweed bedstraw, Galium aparine); assay: Test A postemergence; settings: for Galium plant response rating: 125 g ai/ha, visual injury rating on 0 to 100 scale (0 no effect, 100 complete control), approx. 10 d; for Plant response rating, Galium: 500 g ai/ha
Summary of the method: as §2

[19] = Preemergence, visual injury after approximately 10 d, 0 to 100 scale where 0 is no effect and 100 is complete control
[20] = Postemergence, 0 to 100 scale where 0 is no effect and 100 is complete control
[21] = preemergence, 0 to 100 scale (0 no effect, 100 complete control)
[22] = postemergence, 0 to 100 scale, 0 no effect, 100 complete control

| Compound | Plant response rating, Rice (rice (Oryra sativa)) | Plant response rating, Sedge, Umbrella [1] | Plant response rating, Barnyardgrass [2] | Plant response rating, Ducksalad [3] | Kochia plant response rating (0 to 100 scale, 0 is no effect, 100 is complete control) (Kochia (Kochia scoparia) [4]; Preemergence) | Foxtail, Giant plant response rating (0 to 100 scale, 0 is no effect, 100 is complete control) ([5]; Preemergence) | Barnyardgrass plant response rating (0 to 100 scale, 0 is no effect, 100 is complete control) ([6]; Preemergence) | Ragweed plant response rating (0 to 100 scale, 0 is no effect, 100 is complete control) ([7]; Preemergence) | Ryegrass, Italian plant response rating (0 to 100 scale, 0 is no effect, 100 is complete control) ([8]; Preemergence) | Pigweed plant response rating (0 to 100 scale, 0 is no effect, 100 is complete control) ([9]; Preemergence) | Corn plant response rating (corn (Zea mays); postemergence) | Kochia plant response rating (Kochia (Kochia scoparia) [10]; postemergence) | Foxtail, Giant plant response rating ([11]; postemergence) | Blackgrass plant response rating ([12]; postemergence) | Barnyardgrass plant response rating ([13]; postemergence) | Wheat plant response rating ([14]; postemergence) | Ragweed plant response rating ([15]; postemergence) | Ryegrass, Italian plant response rating ([16]; postemergence) | Pigweed plant response rating ([17]; postemergence) | Galium plant response rating ([18]; postemergence) | also measured |
| --- | --- | --- | --- | --- | --- | --- | --- | --- | --- | --- | --- | --- | --- | --- | --- | --- | --- | --- | --- | --- | --- |
| COCc1cccc(C2CNC(=O)C2C(=O)Nc2ccccc2Cl)c1 (stereo not drawn) [Compound 498] | 0 | 0 | 45 | 90 | 0 | 80 | 90 | 0 | 0 | 0 | 0 | 0 | 20 | 0 | 30 | 0 | 0 | 0 | 0 | 0 | Plant response rating, Kochia (Kochia (Kochia scoparia) [4]; [19]): 0; Plant response rating, Foxtail, Giant [5, 19]: 40; Plant response rating, Barnyardgrass [6, 19]: 30; Plant response rating, Ragweed [7, 19]: 0; Plant response rating, Ryegrass, Italian [8, 19]: 0; Plant response rating, Pigweed [9, 19]: 0; Plant response rating, Corn (corn (Zea mays); [20]): 0; Plant response rating, Kochia (Kochia (Kochia scoparia) [10]; [20]): 0; Plant response rating, Foxtail, Giant [11, 20]: 40; Plant response rating, Blackgrass [12, 20]: 0; Plant response rating, Barnyardgrass [13, 20]: 70; Plant response rating, Wheat [14, 20]: 0; Plant response rating, Ragweed [15, 20]: 0; Plant response rating, Ryegrass, Italian [16, 20]: 0; Plant response rating, Pigweed [17, 20]: 0; Plant response rating, Galium [18, 20]: 0 |
| Cc1cc(C2CN(C)C(=O)C2C(=O)Nc2ccccc2S(C)(=O)=O)ccc1F (stereo not drawn) [Compound 405] | 0 | 0 | 70 | 85 | 70 | 90 | 90 | 70 | 30 | 60 | 30 | 40 | 80 | 50 | 90 | 60 | 0 | 30 | 40 | 60 | Plant response rating, Kochia (Kochia (Kochia scoparia) [4]; [21]): 50; Plant response rating, Foxtail, Giant [5, 21]: 90; Plant response rating, Barnyardgrass [6, 21]: 90; Plant response rating, Ragweed [7, 21]: 20; Plant response rating, Ryegrass, Italian [8, 21]: 0; Plant response rating, Pigweed [9, 21]: 50; Plant response rating, Corn (corn (Zea mays); [22]): 80; Plant response rating, Kochia (Kochia (Kochia scoparia) [10]; [22]): 50; Plant response rating, Foxtail, Giant [11, 22]: 80; Plant response rating, Blackgrass [12, 22]: 60; Plant response rating, Barnyardgrass [13, 22]: 90; Plant response rating, Wheat [14, 22]: 80; Plant response rating, Ragweed [15, 22]: 50; Plant response rating, Ryegrass, Italian [16, 22]: 60; Plant response rating, Pigweed [17, 22]: 50; Plant response rating, Galium [18, 22]: 60 |
| O=C(Nc1cccc(F)c1F)C1C(=O)N(c2ccccc2)CC1c1cccc(C(F)(F)F)c1 (stereo not drawn) [Compound 457] | 0 | 0 | 0 | 0 | 0 | 0 | 0 | 0 | 0 | 0 | 0 | 0 | 0 | 0 | 0 | 0 | 0 | 0 | 0 | 0 | Plant response rating, Kochia (Kochia (Kochia scoparia) [4]; [21]): 0; Plant response rating, Foxtail, Giant [5, 21]: 0; Plant response rating, Barnyardgrass [6, 21]: 0; Plant response rating, Ragweed [7, 21]: 0; Plant response rating, Ryegrass, Italian [8, 21]: 0; Plant response rating, Pigweed [9, 21]: 0; Plant response rating, Corn (corn (Zea mays); [22]): 0; Plant response rating, Kochia (Kochia (Kochia scoparia) [10]; [22]): 0; Plant response rating, Foxtail, Giant [11, 22]: 0; Plant response rating, Blackgrass [12, 22]: 0; Plant response rating, Barnyardgrass [13, 22]: 0; Plant response rating, Wheat [14, 22]: 0; Plant response rating, Ragweed [15, 22]: 0; Plant response rating, Ryegrass, Italian [16, 22]: 0; Plant response rating, Pigweed [17, 22]: 0; Plant response rating, Galium [18, 22]: 0 |
